US11779602B2, “Methods of use for CAR T cells” (ENDOCYTE, INC., priority 2018, dated 2023)

Experiments:
[1] = tested on: FR+ cell lines (MDA-MB-231, KB, HOS-FRα, THP1-FRβ, OV90); assay: Co-culture at 10 nM EC17, varying E/T ratios: specific lysis and Th1 cytokines; format: cell-based, human; settings: 10 nM EC17, ≥1:1 E/T ratios, 48 hours
Experimental: After 24 hours of co-culture, supernatants were harvested to determine tumor cell killing. To study the kinetics of T cell activation and FR correlation in vitro (FIGS. 60A-L), co-cultures were carried out in FR+/− cell lines at varying E/T ratios (1:27, 1:9, 1:3, 1:1, 3:1) in the continuous presence of 10 nM EC17. The kinetics of tumor cell killing were quantified after 16 and 48 hours of co-culture. Meanwhile, a portion of the supernatants was taken after 44 hours of co-culture for measurement of IFNγ, IL-2 and TNFα. Using Promega's CytoTox 96® LDH assay kit, target cell killing was quantified and expressed as specific lysis (%) which was normalized to basal levels in the absence of EC17 at defined E/T ratios. The LEGENDplex™ human Th1 cytokine panel (BioLegend, San Diego, Calif.) was used to determine CAR-T cell derived cytokines.
Specific lysis (%) was quantified after 16 and 48 hours of co-culture, and Th1 cytokines (IFNγ, IL-2, TNFα) in culture media were measured after 44 hours of co-culture. […] It generally took a longer time (48 hours) and a higher E/T ratio (≥1:1) to see significant activity in the lowest FR-expressing OV90 cells (FIGS. 60A-G). The high FR-expressing KB cells responded […] to cause significant cell death (FIG. 60F). […]

[2] = tested on: MDA-MB-231 tumor; assay: Kinetics of CAR-T cell expansion and tumor uptake in MDA-MB-231 tumor bearing mice; format: in vivo
Experimental: When the tumor sizes averaged at ˜350±60 mm^3 on day 2, up to […] of EC17 at 500 nmol/kg were given on days 2, 9, 16, 23, and 30. For ex-vivo analysis, 3 animals were taken before the next EC17 dose on days 9, 16, 23, and 30 for a total of 4 collections. For comparison, the same EC17 dose was given to 3 CAR-T mice that had ˜4.4× larger tumor sizes on day 2 (˜1555±79 mm^3). For each collection, fresh blood and tumor samples (if available) were analyzed for the presence of human CD3ε+EGFRt+ CAR-T cells by flow cytometry.
The dynamic interplay between EC17 and CAR-T cells in vivo was further analyzed using MDA-MB-231 tumor model, which was previously found to be among the highest FR expressing tumors at 103±15 pmol/mg membrane protein using a ^3H-FA-based radioligand binding assay. […] Seven days following a single EC17 dose (i.e., study day 9), human CD3ε+EGFRt+ CAR-T cells were detected in the blood of mice, with elevated numbers circulating in mice bearing larger tumors (FIGS. 62B-E). […]
For CAR-T cell analysis in the circulation, plasma was removed from a predetermined volume of whole blood collected into tubes containing ethylenediaminetetraacetic acid anticoagulant. […] A minimum of 20,000 propidium iodide negative live cell events were collected on the Gallios flow cytometer and analyzed with the Kaluza software, version 2.1 (Beckman Coulter, Brea, Calif.). […]

Which results are given for `NC1=NC2N=CC(CNc3ccc(C(=O)N[C@@H](CCC(=O)NCCNC(=S)Nc4ccc(-c5c6ccc(=O)cc-6oc6cc(O)ccc56)c(C(=O)O)c4)C(=O)O)cc3)=NC2C(=O)N1` (stereo partly drawn) [EC17, FA-(γ)-ethylenediamine-FITC]?
specific lysis response [1]: all FR+ cancer cells responded after 48 hours of co-culture; onset of tumor response ([2]; EC17 500 nmol/kg weekly, ~4.8 million E2-CAR-T cells): started to respond after the second EC17 dose; body weight loss ([2]; after EC17 administration, especially after the third dose): mild body weight loss
